Measured values: BigSolDB 2.1

CC(C)Oc1ccc2c(=O)c(-c3ccccc3)coc2c1
solubility (mole fraction)
Details	278.15 K	283.15 K	288.15 K	293.15 K	298.15 K	303.15 K	308.15 K	313.15 K	318.15 K	323.15 K
in DMAc	0.0395	0.0454	0.0534	0.062	0.0721	0.0841	0.0981	0.113	0.133	0.152
in DMF	0.0245	0.0301	0.0352	0.0431	0.0506	0.0622	0.0718	0.0884	0.103	0.126
in acetone	0.00852	0.0102	0.0128	0.0157	0.0193	0.0241	0.0291	0.0363	0.0441	0.056
in acetonitrile	0.00246	0.00336	0.00441	0.0056	0.00731	0.00942	0.0122	0.0159	0.0212	0.0282
in dichloromethane	0.0667	0.0735	0.0809	0.0903	0.0988	0.108	0.119	–	–	–
in ethanol	0.000992	0.00141	0.00187	0.00239	0.00301	0.00409	0.00521	0.00696	0.00872	0.012
in methanol	0.000841	0.00109	0.0015	0.00195	0.00244	0.0032	0.00391	0.00505	0.00623	0.00823
in methyl acetate	0.00948	0.0116	0.0142	0.0174	0.0213	0.0264	0.0321	0.039	0.0479	0.059
in n-butanol	0.00166	0.00215	0.00294	0.00375	0.00494	0.00645	0.00842	0.0113	0.0153	0.0195
in n-pentanol	0.00192	0.00239	0.00338	0.00461	0.00597	0.0073	0.00992	0.0125	0.0165	0.0221
in n-propanol	0.00135	0.00172	0.00223	0.00307	0.00399	0.00509	0.00671	0.00877	0.0113	0.0147
in toluene	0.0114	0.0143	0.0174	0.022	0.0271	0.0338	0.0417	0.0523	0.0638	0.0802
